Data set [1] concerns Tagia sp. Particulars: acute; duration: 14 days; mortality.
Data set [2] has as its system Daphnia magna. Particulars: chronic/long-term; duration: 21 days; reproduction.
Data set [3] has as its system Oncorhynchus mykiss.
The subject of data set [4] is Anas platyrhynchos. The following applies: short-term; oral; feed; mortality.
In data set [5] the test system is Colinus virginianus.
Data set [6] concerns Apis mellifera. The following applies: acute; duration: 48 hours; oral; unspecified; mortality.
For data set [7], the system named is Rattus norvegicus.

Converted amounts (≈) assume the structure as drawn. “And” between values parts separate entries of the source, which are not always exact repeats. Identical values can stand only once.

The NOAEL is the highest tested level that showed no adverse finding.

Take `Nc1cnn(-c2ccccc2)c(=O)c1Cl` [Chloridazon]: the LC50 was more than 1000 mg/kg in data set [1]; 41.3 µg/mL (≈ 186 µM) in data set [3] (acute, duration: 96 hours, mortality); 1110 mg/kg in data set [4]. Besides, the NOEC in data set [2] stood at 10 mg/L; in data set [3] (chronic/long-term, duration: 28 days, growth), 3.16 mg/L. For the same compound, the LD50 in data set [5] (acute, oral, mortality) is not below 2000 mg/kg; in data set [6], more than 200 µg/piece; in data set [7] (acute, oral, F, mortality), 2140 mg/kg and 825 mg/kg. For the same compound, the NOAEL in data set [5] (reproduction developmental, F) was 21.8 mg/kg-day; in data set [7] (chronic, duration: 2 years, body weight), 13 mg/kg-day; in data set [7] (reproduction developmental, body weight) it was 37 mg/kg-day; in data set [7] (reproduction developmental, reproduction), 37 mg/kg-day; in data set [7] (subchronic, duration: 90 days, oral, body weight), 21 mg/kg-day.
